{
  "source": "patent US20250228835A1",
  "about": "“PYRIDINYLOXYPYRIDINES AND RELATED COMPOUNDS AND THEIR USE IN TREATING MEDICAL CONDITIONS” (Rectify Pharmaceuticals, Inc., priority 2024, published 2025)",
  "assay_type_in_all_cases": "cell-based",
  "key": {"[1]": {"target": "T1, ABCB4 WT (Homo sapiens, UniProt P21439)", "T1 construct": "expressed in transfected cells", "test": "ABCB4 WT assay: HiBit protein expression", "conditions": "HEK-293 cells stably expressing HiBit-tagged ABCB4 WT; 24 h treatment; top concentration 30 μM; read-out: ABCB4 WT EC50, Emax", "how_it_was_run": "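HEK-293 cells stably expressing HiBit-tagged human ABCB4 WT, treated 24 h at 37 °C with 11-dose 3-fold dilutions, top final 30 μM in 0.3% DMSO. HiBit lytic reagent luminescence read after 1 h at 25 °C; Emax and EC50 derived.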"}, "[2]": {"target": "T2, ABCA4 P1380L (Homo sapiens, UniProt P78363, P1380L)", "T2 construct": "expressed in transfected cells", "T2 sequence (P78363 whole entry P1380L)": "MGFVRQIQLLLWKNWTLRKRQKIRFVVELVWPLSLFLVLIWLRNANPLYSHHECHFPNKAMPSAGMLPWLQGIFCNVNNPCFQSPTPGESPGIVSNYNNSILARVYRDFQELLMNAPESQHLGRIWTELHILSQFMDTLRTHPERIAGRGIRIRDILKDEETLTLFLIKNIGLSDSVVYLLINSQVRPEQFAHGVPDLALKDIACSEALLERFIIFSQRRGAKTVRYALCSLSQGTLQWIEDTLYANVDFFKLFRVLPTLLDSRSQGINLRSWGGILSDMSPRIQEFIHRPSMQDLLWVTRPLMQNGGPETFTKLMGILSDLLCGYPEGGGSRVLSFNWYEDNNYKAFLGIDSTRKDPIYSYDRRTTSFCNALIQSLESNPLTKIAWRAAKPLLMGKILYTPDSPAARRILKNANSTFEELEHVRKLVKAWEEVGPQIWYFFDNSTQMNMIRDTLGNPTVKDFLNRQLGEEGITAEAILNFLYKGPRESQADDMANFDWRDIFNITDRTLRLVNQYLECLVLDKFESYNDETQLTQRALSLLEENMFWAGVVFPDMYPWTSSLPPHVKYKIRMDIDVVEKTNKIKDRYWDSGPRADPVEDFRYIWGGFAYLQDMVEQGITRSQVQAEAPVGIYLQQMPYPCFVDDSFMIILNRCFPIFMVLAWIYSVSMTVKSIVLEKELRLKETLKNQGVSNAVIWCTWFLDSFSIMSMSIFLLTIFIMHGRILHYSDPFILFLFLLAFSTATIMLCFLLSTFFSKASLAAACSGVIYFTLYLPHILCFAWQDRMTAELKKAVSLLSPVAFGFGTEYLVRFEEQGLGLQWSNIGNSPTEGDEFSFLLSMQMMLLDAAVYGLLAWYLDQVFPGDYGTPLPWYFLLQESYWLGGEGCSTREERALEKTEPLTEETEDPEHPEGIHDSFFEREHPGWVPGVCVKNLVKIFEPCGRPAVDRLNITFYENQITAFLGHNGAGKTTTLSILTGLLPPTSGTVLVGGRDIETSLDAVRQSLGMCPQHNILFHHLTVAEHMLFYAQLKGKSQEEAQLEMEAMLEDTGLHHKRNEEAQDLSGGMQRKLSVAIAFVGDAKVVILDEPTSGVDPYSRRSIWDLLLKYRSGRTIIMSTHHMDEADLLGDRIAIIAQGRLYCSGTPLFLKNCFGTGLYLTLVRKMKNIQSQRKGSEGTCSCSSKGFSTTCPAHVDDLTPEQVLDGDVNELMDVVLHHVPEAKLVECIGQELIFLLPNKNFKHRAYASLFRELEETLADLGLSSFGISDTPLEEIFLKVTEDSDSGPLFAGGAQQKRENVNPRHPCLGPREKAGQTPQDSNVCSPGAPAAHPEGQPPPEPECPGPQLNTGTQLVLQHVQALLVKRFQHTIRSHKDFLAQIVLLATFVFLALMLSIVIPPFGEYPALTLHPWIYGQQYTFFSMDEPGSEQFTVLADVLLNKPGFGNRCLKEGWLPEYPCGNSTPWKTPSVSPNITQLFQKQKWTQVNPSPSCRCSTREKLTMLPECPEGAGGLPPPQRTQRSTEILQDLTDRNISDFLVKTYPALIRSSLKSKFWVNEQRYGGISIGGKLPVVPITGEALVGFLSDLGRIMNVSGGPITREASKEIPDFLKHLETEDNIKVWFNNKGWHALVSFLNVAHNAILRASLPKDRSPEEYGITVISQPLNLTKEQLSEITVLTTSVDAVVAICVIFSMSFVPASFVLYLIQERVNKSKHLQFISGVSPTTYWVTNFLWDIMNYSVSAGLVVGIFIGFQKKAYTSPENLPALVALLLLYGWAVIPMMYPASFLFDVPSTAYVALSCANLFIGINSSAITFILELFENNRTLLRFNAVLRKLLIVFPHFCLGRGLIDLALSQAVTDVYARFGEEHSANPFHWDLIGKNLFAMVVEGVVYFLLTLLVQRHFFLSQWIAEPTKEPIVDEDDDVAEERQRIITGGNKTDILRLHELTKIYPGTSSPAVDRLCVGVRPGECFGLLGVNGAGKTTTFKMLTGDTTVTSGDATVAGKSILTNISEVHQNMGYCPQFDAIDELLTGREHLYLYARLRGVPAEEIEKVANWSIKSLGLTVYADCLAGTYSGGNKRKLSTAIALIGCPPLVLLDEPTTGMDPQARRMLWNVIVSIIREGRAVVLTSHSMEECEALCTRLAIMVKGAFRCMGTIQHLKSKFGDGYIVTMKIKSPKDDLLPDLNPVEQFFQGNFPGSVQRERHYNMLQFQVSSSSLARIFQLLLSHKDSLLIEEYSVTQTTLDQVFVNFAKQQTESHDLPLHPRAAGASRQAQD", "test": "A4 correction dose-response assay: ABCA4 P1380L HiBit protein expression", "conditions": "HEK-293 cells stably expressing HiBit-tagged ABCA4 P1380L; 24 h treatment; top concentration 30 μM; read-out: ABCA4 P1380L EC50, Emax", "how_it_was_run": "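Cells transfected with HiBit-tagged human ABCA4 P1380L cDNA were treated for 24 h at 37°C with an eleven-point dilution series (top final 30 μM, 0.3% DMSO).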"}, "[3]": {"target": "T3, ABCD2 WT (Homo sapiens, UniProt Q9UBJ2)", "T3 construct": "expressed in transfected cells", "T3 sequence (Q9UBJ2 1-740)": "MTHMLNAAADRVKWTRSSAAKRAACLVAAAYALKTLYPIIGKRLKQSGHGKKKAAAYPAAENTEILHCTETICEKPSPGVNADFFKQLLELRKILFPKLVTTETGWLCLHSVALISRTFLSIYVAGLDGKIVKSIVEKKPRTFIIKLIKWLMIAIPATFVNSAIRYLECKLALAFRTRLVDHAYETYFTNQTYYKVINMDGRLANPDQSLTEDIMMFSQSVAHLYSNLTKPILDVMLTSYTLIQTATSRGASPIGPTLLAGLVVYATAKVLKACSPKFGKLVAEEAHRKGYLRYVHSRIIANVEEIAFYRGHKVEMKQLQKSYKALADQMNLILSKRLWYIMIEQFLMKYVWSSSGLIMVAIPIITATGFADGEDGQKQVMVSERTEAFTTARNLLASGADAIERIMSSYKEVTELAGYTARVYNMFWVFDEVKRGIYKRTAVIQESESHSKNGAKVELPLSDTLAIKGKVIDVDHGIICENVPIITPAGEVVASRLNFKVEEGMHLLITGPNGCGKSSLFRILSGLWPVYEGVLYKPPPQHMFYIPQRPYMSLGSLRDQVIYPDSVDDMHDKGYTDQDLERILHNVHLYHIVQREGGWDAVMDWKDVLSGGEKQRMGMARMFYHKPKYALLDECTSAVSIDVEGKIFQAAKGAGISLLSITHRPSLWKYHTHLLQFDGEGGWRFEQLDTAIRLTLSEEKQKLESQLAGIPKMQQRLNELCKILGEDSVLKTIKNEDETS", "test": "D2 correction dose-response assay: ABCD2 WT HiBit protein expression", "conditions": "HEK-293/ABCD2 WT cells, 24 hours treatment, HiBit luminescence; class combines EC50 and Mean MaxAct (fold); read-out: ABCD2 WT EC50, Emax", "how_it_was_run": "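HEK-293 cells stably expressing HiBit-tagged human ABCD2 WT were treated with 11 doses (3-fold dilutions, top final 30 μM, 0.3% DMSO) for 24 h at 37 °C. Expression was measured by HiBit lytic luminescence after 1 h at 25 °C, giving EC50 and Emax.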"}},
  "data": [
    {"smiles": "Cc1cc(C)c(Oc2nc(-c3cncc(Cl)c3)ccc2NS(=O)(=O)C2COC2)c(C)n1", "note": "[Compound I-237]", "values": [
      {"measurement": "EC50", "setting": "[1]", "value": "< 25000", "unit": "nM"},
      {"measurement": "EC50", "setting": "[2]", "value": "< 1000", "unit": "nM"},
      {"measurement": "EC50", "setting": "[3]", "value": "< 1000", "unit": "nM"}
    ]}
  ]
}
